Results taken from patent US12338223B2 (PURISYS LLC, priority 2019, dated 2025).
Values after ≈ are worked out from the molar mass of the structure shown.

Assays:
CB2 receptor = CB2 receptor (Homo sapiens, UniProt P34972); conditions: fold lower affinity than THC; cited from earlier work
CB1 receptor [1] = molecular target: T1, CB1 receptor (Homo sapiens, UniProt P21554); conditions: cited from earlier work
[2] = Solubility of CBN in crystallization solvents (solvent screen); assay type: physicochemical; conditions: organic solvent or mixture, RT
CB1 receptor [3] = molecular target: T1, CB1 receptor; conditions: fold lower affinity than THC; cited from earlier work

T1 sequence (P21554 whole entry): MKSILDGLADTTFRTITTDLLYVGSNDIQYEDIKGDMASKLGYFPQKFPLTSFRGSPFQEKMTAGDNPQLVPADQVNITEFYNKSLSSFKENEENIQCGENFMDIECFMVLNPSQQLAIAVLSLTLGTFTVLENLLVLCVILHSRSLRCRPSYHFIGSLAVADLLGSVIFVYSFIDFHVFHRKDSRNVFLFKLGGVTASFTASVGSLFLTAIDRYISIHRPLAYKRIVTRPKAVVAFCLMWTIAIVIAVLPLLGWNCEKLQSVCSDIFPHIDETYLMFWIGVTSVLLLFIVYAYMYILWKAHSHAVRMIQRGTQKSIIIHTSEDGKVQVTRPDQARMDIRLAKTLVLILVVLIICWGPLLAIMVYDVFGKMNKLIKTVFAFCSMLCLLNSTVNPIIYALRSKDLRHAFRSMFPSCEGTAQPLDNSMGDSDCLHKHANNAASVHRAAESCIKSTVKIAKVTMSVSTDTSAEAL
Sequence of CB2 receptor (P34972 whole entry): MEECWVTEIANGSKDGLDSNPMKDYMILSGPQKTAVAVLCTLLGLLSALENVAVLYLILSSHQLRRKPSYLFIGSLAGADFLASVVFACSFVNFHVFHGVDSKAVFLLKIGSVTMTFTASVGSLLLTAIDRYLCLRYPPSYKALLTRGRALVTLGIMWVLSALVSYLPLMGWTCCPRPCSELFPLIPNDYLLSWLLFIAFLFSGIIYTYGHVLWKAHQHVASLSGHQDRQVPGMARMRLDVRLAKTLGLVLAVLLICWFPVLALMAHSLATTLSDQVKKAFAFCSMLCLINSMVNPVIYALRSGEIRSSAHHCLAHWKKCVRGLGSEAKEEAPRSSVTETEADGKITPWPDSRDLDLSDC

Compound: CCCCCc1cc(O)c2c(c1)OC(C)(C)c1ccc(C)cc1-2 [CBN, cannabinol]
- Affinity lower relative to THC (CB2 receptor): about 3 fold
- Type of activity at CB1 receptors (CB1 receptor [1]): partial agonist
- solubility ([2]; solvent Iso-Octane): 24.9 mg/mL (≈ 80.2 mM)
- solubility ([2]; solvent n-Heptane): 33.4 mg/mL (≈ 108 mM)
- Affinity lower relative to THC (CB1 receptor [3]): 7- to 8 fold
